Experimental data published in PubChem BioAssay (NCI).
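The concentration for 50% growth inhibition is given as GI50. TGI: total growth inhibition.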

How the values were obtained:
Assay in all cases: growth of human tumour cells (NCI), 384-well format
SN12C renal = tested on: SN12C renal
CAKI-1 renal = tested on: CAKI-1 renal
HCC-2998 colon = tested on: HCC-2998 colon
SNB-19 CNS = tested on: SNB-19 CNS
NCI-H226 lung = tested on: NCI-H226 lung
UACC-257 melanoma = tested on: UACC-257 melanoma
SK-MEL-2 melanoma = tested on: SK-MEL-2 melanoma
HOP-92 NSCLC = tested on: HOP-92 NSCLC
SW-620 colon = tested on: SW-620 colon
ACHN renal = tested on: ACHN renal
HCT-15 colon = tested on: HCT-15 colon
A549 NSCLC = tested on: A549 NSCLC
MDA-MB-435 melanoma = tested on: MDA-MB-435 melanoma
KM12 colon = tested on: KM12 colon
NCI-H23 lung = tested on: NCI-H23 lung
MCF7 breast = tested on: MCF7 breast
EKVX NSCLC = tested on: EKVX NSCLC
NCI-H460 NSCLC = tested on: NCI-H460 NSCLC
MOLT-4 leukemia = tested on: MOLT-4 leukemia
DU-145 prostate = tested on: DU-145 prostate
MALME-3M melanoma = tested on: MALME-3M melanoma
COLO 205 colon = tested on: COLO 205 colon
NCI-H322M lung = tested on: NCI-H322M lung
786-0 renal = tested on: 786-0 renal
OVCAR-5 ovarian = tested on: OVCAR-5 ovarian
HL-60(TB) leukemia = tested on: HL-60(TB) leukemia
LOX IMVI melanoma = tested on: LOX IMVI melanoma
NCI/ADR-RES ovarian = tested on: NCI/ADR-RES ovarian
OVCAR-4 ovarian = tested on: OVCAR-4 ovarian
HS 578T breast = tested on: HS 578T breast
M14 melanoma = tested on: M14 melanoma
MDA-MB-468 breast = tested on: MDA-MB-468 breast
SF-268 CNS = tested on: SF-268 CNS
T-47D breast = tested on: T-47D breast
MDA-MB-231 breast = tested on: MDA-MB-231 breast
U251 glioblastoma = tested on: U251 glioblastoma
SK-MEL-28 melanoma = tested on: SK-MEL-28 melanoma
NCI-H522 lung = tested on: NCI-H522 lung
SNB-75 CNS = tested on: SNB-75 CNS
CCRF-CEM leukemia = tested on: CCRF-CEM leukemia
BT-549 breast = tested on: BT-549 breast
SK-OV-3 ovarian = tested on: SK-OV-3 ovarian
HOP-62 NSCLC = tested on: HOP-62 NSCLC
SF-539 CNS = tested on: SF-539 CNS
SR leukemia = tested on: SR leukemia
SF-295 CNS = tested on: SF-295 CNS
TK-10 renal = tested on: TK-10 renal
HCT-116 colon = tested on: HCT-116 colon
HT29 colon = tested on: HT29 colon
OVCAR-3 ovarian = tested on: OVCAR-3 ovarian
IGROV1 ovarian = tested on: IGROV1 ovarian
OVCAR-8 ovarian = tested on: OVCAR-8 ovarian
A498 renal = tested on: A498 renal
SK-MEL-5 melanoma = tested on: SK-MEL-5 melanoma
UACC-62 melanoma = tested on: UACC-62 melanoma
K-562 leukemia = tested on: K-562 leukemia
RPMI-8226 leukemia = tested on: RPMI-8226 leukemia
PC-3 prostate = tested on: PC-3 prostate
RXF 393 renal = tested on: RXF 393 renal

Nc1ncn([C@H]2CC(O)[C@@H](CO)S2)c(=O)n1 (stereo partly specified) was tested, and the GI50 (SN12C renal) was 0.251 µM, the TGI (SN12C renal) was > 39.9 µM and the GI50 (CAKI-1 renal) was 0.266 µM. For the same compound, the TGI (CAKI-1 renal) was 14.7 µM, the GI50 (HCC-2998 colon) was 0.124 µM and the TGI (HCC-2998 colon) was 3.28 µM. For the same compound, the GI50 (SNB-19 CNS) was 0.442 µM, the TGI (SNB-19 CNS) was > 100 µM and the GI50 (NCI-H226 lung) was 1.71 µM. For the same compound, the TGI (NCI-H226 lung) was 20.7 µM, the GI50 (UACC-257 melanoma) was 4.76 µM and the TGI (UACC-257 melanoma) was 21.4 µM. It also gave a GI50 (SK-MEL-2 melanoma) of 0.253 µM, a TGI (SK-MEL-2 melanoma) of 0.691 µM and a GI50 (HOP-92 NSCLC) of 0.284 µM. The TGI (HOP-92 NSCLC) was > 100 µM, the GI50 (SW-620 colon) was 0.377 µM and the TGI (SW-620 colon) was 16.2 µM. The GI50 (ACHN renal) was 0.111 µM, the TGI (ACHN renal) was 11.7 µM and the GI50 (HCT-15 colon) was 1.09 µM. The TGI (HCT-15 colon) was 22.1 µM, the GI50 (A549 NSCLC) was 0.155 µM and the TGI (A549 NSCLC) was 3.05 µM. For the same compound, the GI50 (MDA-MB-435 melanoma) was 1.12 µM, the TGI (MDA-MB-435 melanoma) was > 100 µM and the GI50 (KM12 colon) was 0.441 µM. The TGI (KM12 colon) was > 100 µM, the GI50 (NCI-H23 lung) was 0.272 µM and the TGI (NCI-H23 lung) was 1.8 µM. For the same compound, the GI50 (MCF7 breast) was 0.256 µM, the TGI (MCF7 breast) was > 100 µM and the GI50 (EKVX NSCLC) was 3.16 µM. For the same compound, the TGI (EKVX NSCLC) was > 75.4 µM, the GI50 (NCI-H460 NSCLC) was 0.0399 µM and the TGI (NCI-H460 NSCLC) was 0.491 µM. The TGI (MOLT-4 leukemia) was 0.0144 µM, the GI50 (DU-145 prostate) was 0.366 µM and the GI50 (MALME-3M melanoma) was 0.257 µM. The TGI (MALME-3M melanoma) was 2.03 µM, the GI50 (COLO 205 colon) was 0.239 µM and the TGI (COLO 205 colon) was 1.76 µM. For the same compound, the GI50 (NCI-H322M lung) was 1.32 µM, the TGI (NCI-H322M lung) was > 100 µM and the GI50 ([…]-0 renal) was 0.178 µM. The TGI (786-0 renal) was 10.9 µM, the GI50 (OVCAR-5 ovarian) was 3.19 µM and the TGI (OVCAR-5 ovarian) was > 100 µM. It also gave a GI50 (HL-60(TB) leukemia) of 0.114 µM, a TGI (HL-60(TB) leukemia) of 0.573 µM and a GI50 (LOX IMVI melanoma) of 0.534 µM. The TGI (LOX IMVI melanoma) was 3.41 µM, the GI50 (NCI/ADR-RES ovarian) was 0.139 µM and the TGI (NCI/ADR-RES ovarian) was 1.26 µM. For the same compound, the GI50 (OVCAR-4 ovarian) was 2.61 µM, the TGI (OVCAR-4 ovarian) was > 100 µM and the GI50 (HS 578T breast) was 1.58 µM. For the same compound, the TGI (HS 578T breast) was 17.9 µM, the GI50 (M14 melanoma) was 2.34 µM and the TGI (M14 melanoma) was 17.6 µM. For the same compound, the GI50 (MDA-MB-468 breast) was 0.153 µM, the TGI (MDA-MB-468 breast) was 0.741 µM and the GI50 (SF-268 CNS) was 1.24 µM. The TGI (SF-268 CNS) was 24 µM, the GI50 (T-47D breast) was 7.69 µM and the TGI (T-47D breast) was > 100 µM. For the same compound, the GI50 (MDA-MB-231 breast) was 0.251 µM, the TGI (MDA-MB-231 breast) was 3.42 µM and the GI50 (U251 glioblastoma) was 1.92 µM. For the same compound, the TGI (U251 glioblastoma) was 24.8 µM, the GI50 (SK-MEL-28 melanoma) was 0.34 µM and the TGI (SK-MEL-28 melanoma) was 2.75 µM. For the same compound, the GI50 (NCI-H522 lung) was 0.0501 µM, the TGI (NCI-H522 lung) was 0.529 µM and the GI50 (SNB-75 CNS) was 7.75 µM. The TGI (SNB-75 CNS) was > 74.1 µM, the GI50 (CCRF-CEM leukemia) was 0.0173 µM and the TGI (CCRF-CEM leukemia) was 0.595 µM. It also gave a GI50 (BT-549 breast) of 0.619 µM, a TGI (BT-549 breast) of 6.52 µM and a GI50 (SK-OV-3 ovarian) of 1.82 µM. It also gave a TGI (SK-OV-3 ovarian) of 33.6 µM, a GI50 (HOP-62 NSCLC) of 0.417 µM and a TGI (HOP-62 NSCLC) of 5.26 µM. For the same compound, the GI50 (SF-539 CNS) was 2.02 µM, the TGI (SF-539 CNS) was 45 µM and the GI50 (SR leukemia) was 0.123 µM. The TGI (SR leukemia) was 0.808 µM, the GI50 (SF-295 CNS) was 7.65 µM and the TGI (SF-295 CNS) was > 74.7 µM. The GI50 (TK-10 renal) was 4.22 µM, the TGI (TK-10 renal) was > 100 µM and the GI50 (HCT-116 colon) was 0.0558 µM. The TGI (HCT-116 colon) was 5.34 µM, the GI50 (HT29 colon) was 1.36 µM and the TGI (HT29 colon) was > 77.8 µM. It also gave a GI50 (OVCAR-3 ovarian) of 0.461 µM, a TGI (OVCAR-3 ovarian) of 7.09 µM and a GI50 (IGROV1 ovarian) of 2.78 µM. The TGI (IGROV1 ovarian) was > 100 µM, the GI50 (OVCAR-8 ovarian) was 0.0822 µM and the TGI (OVCAR-8 ovarian) was 2.69 µM. For the same compound, the GI50 (A498 renal) was 0.146 µM, the TGI (A498 renal) was 2.65 µM and the GI50 (SK-MEL-5 melanoma) was 0.0706 µM. The TGI (SK-MEL-5 melanoma) was 1.33 µM, the GI50 (UACC-62 melanoma) was 1.23 µM and the TGI (UACC-62 melanoma) was 17.3 µM. It also gave a GI50 (K-562 leukemia) of 0.2 µM, a TGI (K-562 leukemia) of 12.6 µM and a GI50 (RPMI-8226 leukemia) of 0.622 µM. The TGI (RPMI-8226 leukemia) was 2.68 µM, the GI50 (PC-3 prostate) was 1.27 µM and the TGI (PC-3 prostate) was > 75.1 µM. The GI50 (RXF 393 renal) was 0.839 µM and the TGI (RXF 393 renal) was 15.1 µM.
